Usually melting point stands for the temperature, or range, at which the solid turns liquid. Consider `CS(=O)(=O)c1cccc(NC(=O)c2cnn3c(Cl)cc(-c4ccc(Cl)cc4)nc23)c1`, for which the melting point is 253 to 255 °C.

For `O=C(Nc1ccc(C(=O)N2Cc3ccccc3Cc3ccccc32)cc1)c1ccc(Cl)cc1Cl`, the melting point lay within 212 to 215 °C.

Turning to `N#Cc1cccc(C(=O)N[C@H]2C[C@H](C(=O)O)Nc3cc(Cl)cc(Cl)c32)c1` (relative stereo), the melting point was in the range of 229 to 231 °C.

Regarding `CCOC(=O)CCc1cc(CCC(=O)O)cc(Cc2cccnc2)c1`, the melting point lay in the range of 62 to 64 °C.

In turn, `CN1CC=C(c2c[nH]c3cc(Cl)c(Cl)cc23)CC1` displayed a melting point of 255 to 257 °C.

Compound `CCc1ccc(NC(=N)c2ccc(SC)cc2)cc1` showed a melting point of 156 to 158 °C.

Regarding `N#CCCNC(=O)c1n[nH]cc1NC(=O)c1ccc(Br)o1`, the melting point is 220 to 222 °C.

As to `CCC(=O)NCCc1cc(-c2cccc(C(=O)OC)c2)cc2ccc(OC)cc12`, the melting point lay within 113 to 115 °C.

As for `Cc1nnc2ccc(-c3cccc(N4CCCCC4=O)c3)nn12`, the melting point is 204 to 207 °C.

In the case of `CC(C)(C)NC(=O)c1ccc2[nH]ccc2c1`, the melting point amounted to 176 °C.

The compound `O=C(c1nccs1)c1cnn2c(-c3cccnc3)ccnc12` displayed a melting point of 262 to 264 °C.

`CC(=O)OC1CSC(Oc2cncc(-c3ccnc(F)c3)c2)C(OC(C)=O)C1OC(C)=O` (configuration not stated): the melting point lay in the range of 122 to 125 °C.

As to `CCN1C(=O)C(C)(C)C(=O)N(C)c2cc(CN(CCn3ccc4sccc4c3=O)Cc3cccnc3COC)ccc21`, the melting point was in the range of 119 to 122 °C.

As for `COc1ccc(C2NC(=O)C(C)S2)cc1OC` (configuration not stated), the melting point is 151 to 152 °C.

In the case of `C=Cc1ccc(Nc2nc(Cl)nc(Cl)n2)cc1`, the melting point fell in the range of 152 to 154 °C.

Take `Nc1ccc(Cl)c(O)c1`: the melting point was in the range of 115 to 117 °C.

As to `CCOCCOc1ccc(CCNC(=O)/C=C/c2cccs2)cc1S(N)(=O)=O`, the melting point amounted to 52 °C.

In turn, `CCc1cc(C(=O)c2ccccc2Cl)c(-n2c(CNC(=O)c3cc4ccccc4[nH]3)nnc2C(C)C)s1` displayed a melting point of 209 to 211 °C.

In turn, `NC(=O)N(CCCl)C(c1ccccc1)P(=O)(O)O` (configuration not stated) registered a melting point of 195 °C.

`CCC(=O)N1Cc2cn[nH]c2-c2cc(N)ccc21`: the melting point lay within 218 to 220 °C.

As for `O=C(O)c1cc2cc(C(=O)c3cccs3)c(Cl)c(Cl)c2o1`, the melting point lay in the range of 243 to 245 °C.

For the compound `O=C(c1ccccc1)c1ccc(OCc2ccccc2)cc1S`, the melting point lay in the range of 122 to 123 °C.

Compound `CC(=O)OCC1OC(c2ccc(F)c(Cc3cccs3)c2)C(OC(C)=O)C(OC(C)=O)C1OC(C)=O` (configuration not stated) gave a melting point of 119 to 121 °C.

The compound `CCOC(=O)c1c(C)nn(-c2ccc(Br)cc2)c1C` showed a melting point of 71 to 73 °C.

`CCCC(Cl)C(=O)c1ccccc1` (configuration not stated) came in with a melting point of 71 to 72 °C.

For the compound `Cc1occc1S(=O)(=O)C(C)(Cc1ccc(OCCN2CCCCC2)cc1)C(=O)NO` (configuration not stated), the melting point lay in the range of 115 to 117 °C.

Compound `CSc1nnc(-c2ccccc2CS(N)(=O)=O)o1` yielded a melting point of 138 to 140 °C.

Turning to `CCCn1c(-c2ccc(-n3ccnc3)cc2)cnc1[C@H](Cc1ccccn1)N(C=O)c1cc2cc(Cl)ccc2o1`, the melting point fell in the range of 173 to 175 °C.

With `CC(C)(C)OC(=O)NCc1[nH]c(C(=O)O)cc(=O)c1O`, the melting point was greater than 300 °C.

Consider `CC1(C)OC(=S)Nc2ccc(-c3cccc(F)c3F)cc21`, for which the melting point is 197 to 198 °C.

As for `CC(OCc1ccc(-c2ccccc2)cc1)C(=O)NO` (configuration not stated), the melting point was in the range of 120 to 123 °C.

Compound `Cc1cc(C)cc(N2CCN(C(=O)Nc3cc(-c4cccnc4)nc4ccccc34)CC2)c1` came in with a melting point of 211 to 213 °C.

Take `CCC(=CCn1oc(=O)[nH]c1=O)c1ccc2c(Cc3ccccc3)c(CC)oc2c1`: the melting point fell in the range of 118 to 120 °C.

For `O=C(O)c1ccc(O)c(I)c1`, the melting point is 163 °C.

Take `C[C@@H](N1CCN(c2ccc(Cl)cc2)C1=O)[C@@]1(c2ccc(F)cc2F)CO1`: the melting point lay within 130 to 131 °C.

`Cc1[nH]c(=O)c(C#N)cc1-c1ccc(S(C)=O)cc1` (configuration not stated): the melting point was in the range of 290 to 291 °C.

For `O=S(=O)(O)NCc1cc(I)cc(I)c1O`, the melting point was in the range of 168 to 170 °C.

In the case of `CN1CCN(C(=O)c2ccc(-c3cnc4c(c3)N(Cc3cc(F)c(F)cc3F)C(=O)CN4)cc2)CC1`, the melting point stood at 238 °C.

Compound `CS(=O)(=O)CCCCC(Cc1ccccc1)S(=O)(=O)c1ccc(Cl)cc1` (configuration not stated) came in with a melting point of 68 to 70 °C.

In the case of `COc1ccc2c(c1)CCC(c1ccc(OC)cc1OC)C2=O` (configuration not stated), the melting point lay within 116 to 118 °C.

`CC(C)(C)NCC(O)COc1cccc2[nH]c(=S)[nH]c12` (configuration not stated): the melting point is 214 to 216 °C.

`OC1CSC(Oc2cncc(-c3ncccc3Cl)c2)C(O)C1O` (configuration not stated) gave a melting point of 193 °C.

As to `FC(Cc1ccc(Cl)cc1)(Cn1cncn1)Cn1cncn1`, the melting point lay within 161 to 163 °C.

Consider `O=S(=O)(N[C@H]1CC[C@H](CCN2CCN(c3nccc4c3CCO4)CC2)CC1)c1ccc(F)cc1`, for which the melting point worked out at 221 °C.

For `CO/C=C(/C(=O)OC)c1ccccc1/C=C(\Cl)OC(=O)C1=C(c2ccccc2)S(=O)(=O)C(c2ccccc2)C1=O` (configuration not stated), the melting point fell in the range of 68 to 72 °C.

In the case of `Cc1nc(-n2cc(C(=O)Nc3ccccc3)ccc2=O)sc1C(=O)NCc1ccccc1`, the melting point lay in the range of 223 to 225 °C.

With `CC(O)(C#Cc1ccc(S(=O)(=O)N2CCCC2)cc1)C(F)(F)F` (configuration not stated), the melting point lay within 140 to 143 °C.

As for `Cc1ccc(C2c3c(C)c(N4CCN(c5ccc([N+](=O)[O-])cc5)CC4)c(C)c(C)c3OC2(C)C)cc1` (configuration not stated), the melting point was 203 to 205 °C.

`CCSc1ccc(OC(C)c2ccnc3ncnn23)cc1` (configuration not stated): the melting point lay within 65 to 67 °C.

In the case of `CC(C)(C)C(=O)C(CS(=O)(=O)c1ccc(Cl)cc1)n1cncn1` (configuration not stated), the melting point was determined as 134 °C.

`CC1(C)CC2(CC(C)(C)N1)NC(=O)N(CC(O)COC(=O)CCCCC(=O)OCC(O)CN1C(=O)NC3(CC(C)(C)NC(C)(C)C3)C1=O)C2=O` (configuration not stated) yielded a melting point of 132 to 134 °C.

`O=C1OC(=O)c2cc3c(cc21)OCO3` returned a melting point of 189 to 191 °C.

In turn, `Cc1ccc(S(=O)(=O)C2=C(C(=O)OC3CCCCC3)C(=O)C=C(C(=O)OC3CCCCC3)C2=O)cc1` registered a melting point of 135 to 137 °C.

In turn, `COC(=O)c1cc2cc(OC)c(OC)cc2c(-c2cccnc2)c1C(=O)OC` showed a melting point of 95 to 96 °C.

Compound `CCOCc1nc2c(N)nc3cc(-c4ccncc4)ccc3c2n1CC(C)C` displayed a melting point of 211 to 213 °C.

Regarding `CCCCCCCCCCCCSc1n[nH]c(-c2ccc(C(C)(C)C)cc2)n1`, the melting point was 87 to 92 °C.

The compound `CCCSc1nc(-c2ccc(C#N)cc2)cn1-c1ccc(C#N)cc1` returned a melting point of 117 to 122 °C.

Regarding `CN1CCc2nc3cc(Cl)ccc3c(NNc3ccccc3)c2C1`, the melting point lay in the range of 175 to 178 °C.

In turn, `Fc1cc(C(F)(F)F)cc(Cl)c1Oc1ccc2cn[nH]c2c1` displayed a melting point of 134 to 143 °C.

Take `COc1ccc(-c2c(CO)c(CO)c3sc4ccccc4n23)cc1`: the melting point fell in the range of 156 to 157 °C.

`CSc1nc(-c2cc(C(C)(C)C)c(O)c(C(C)(C)C)c2)cs1` yielded a melting point of 92 to 93 °C.

Compound `CC(C(N)=O)c1ccc2c(c1)Sc1ncccc1CC2=O` (configuration not stated) had a melting point of 161 to 162 °C.

Regarding `CS(=O)(=O)c1ccc(Oc2cc(OCc3ccccc3)c3[nH]c(-c4ncc(CO)s4)cc3c2)cc1`, the melting point fell in the range of 125 to 126 °C.

In the case of `CNC(=O)N1N=C(c2ccc(N)c(C)c2)c2cc(Cl)ccc2C=C1C`, the melting point lay within 210 to 212 °C.

As for `Cc1cc2c3c(ccc2cc1Br)OC(=O)C3`, the melting point lay within 238 to 240 °C.

In turn, `Cc1c(NC(=O)CC(C)(C)C)cc2c(c1C)OC(C)(C)C2(O)c1cccc(C(C)C)c1` (configuration not stated) came in with a melting point of 136 to 137 °C.

With `CCc1nc(C(=O)c2cc(F)c(Cl)cc2Cl)c(C=O)n1C(CC)CC`, the melting point fell in the range of 70 to 71 °C.

`CCOC(=O)C(S)(C#N)C1=NC(C)Cc2cc(OC)c(OC)cc21` (configuration not stated) showed a melting point of 128 to 130 °C.

As to `CCC(=O)Nc1cc(OC)cc2c1CC(C)O2` (configuration not stated), the melting point came out at 101 °C.

Compound `CCN(CC)CCC/C=C/c1cc2ncc(C#N)c(Nc3ccc(Sc4nccn4C)c(Cl)c3)c2cc1OC` had a melting point of 229 to 233 °C.

The compound `Cc1ccc(NC(=O)c2ccc(CBr)c(C(F)(F)F)c2)cc1Br` registered a melting point of 153 to 154 °C.

On to `O=C1Nc2ccc(Cl)cc2C1(NCCc1ccccn1)c1ccccc1Cl` (configuration not stated), for which the melting point worked out at 178 °C.

Regarding `CC(C)(C)OC(=O)N1CCCC(C(=O)N2CCC(c3[nH]nc4c3C(=O)c3c(NC(=O)NN5CCOCC5)cccc3-4)CC2)C1` (configuration not stated), the melting point lay within 196 to 198 °C.

As for `CCCc1cc(-c2ccc(Cl)cc2)nc2c(I)cnn12`, the melting point fell in the range of 108 to 110 °C.

In turn, `O=C(NC1CCN(CCCc2ccccc2)CC1)C1=Cc2cnc3cccc(n23)S1` displayed a melting point of 190 to 191 °C.

Regarding `CC1(C)CCC(C)(C)c2cc(C(O)CCC(=O)O)ccc21` (configuration not stated), the melting point came out at 10 °C.

`CCCCCC(CC(=O)Nc1cc(C(N)=O)ccc1C(C)(C)C)c1ccc(OCCCOC)cc1OC` (configuration not stated) registered a melting point of 65 to 67 °C.

Consider `CCOC(=O)Cc1ncnc2c([N+](=O)[O-])cccc12`, for which the melting point fell in the range of 162 to 164 °C.

In turn, `CC1(N)CN(c2cc3c(cc2F)c(=O)c(C(=O)O)cn3-c2ccc(F)cc2F)C1` displayed a melting point of 210 to 216 °C.

Compound `CCOC(=O)C1=C(C)Nc2c(C(=O)O)ncn2C1c1cccc([N+](=O)[O-])c1` (configuration not stated) registered a melting point of 222 °C.

With `CN(CC(=O)O)c1ccc(C#N)cc1`, the melting point was found to be 64.5 °C.

Compound `CC(=O)N[C@H](COCc1cc(C)cc(C)c1)Cc1ccccc1` yielded a melting point of 76 to 78 °C.

In turn, `CCc1cnc2c(C#N)cnn2c1-c1cccc(C(F)(F)F)c1` gave a melting point of 135 to 137 °C.

`O=C(NCC(=O)N1c2ccccc2N(Cc2ccccc2)C(=O)[C@H]2CCC[C@H]21)c1ccco1` (relative stereo) registered a melting point of 169 to 170 °C.

In turn, `Fc1cccc(CC[C@H]2CN(Cc3ccccc3)CCN2Cc2ccccc2)c1` yielded a melting point of 69 to 71 °C.

With `CN(C)c1ncnc2c1c(-c1ccc([N+](=O)[O-])o1)nn2C`, the melting point came to 161 °C.

In the case of `Cc1c(NC(=O)CC(C)(C)C)c(C)c2c(c1-c1ccc(N(C)C)cc1)OCC2c1ccc(C(C)C)cc1` (configuration not stated), the melting point fell in the range of 180 to 181 °C.

For the origin of these results see a melting point compilation (Tetko et al.; mined from patent text by program, amines drawn as free bases though some values may be those of a salt).
